# Laboratory results from PubChem BioAssay (NCI).
# Where “and” joins values, the source holds several entries; their conditions need not be identical. Identical values can stand only once.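 Briefly, cells in 96-well plates were exposed to five compound concentrations for 48 h, and endpoints were estimated by linear interpolation. GI50 is the concentration that inhibits growth by half. TGI denotes the concentration required for complete inhibition of growth.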
# What was measured:
# Assay in all cases: NCI tumour cell line growth inhibition, 48 h
# [1] = test system: A549 NSCLC
# [2] = test system: CAKI-1 renal
# [3] = test system: MOLT-4 leukemia
# [4] = test system: TK-10 renal
# [5] = test system: MDA-MB-435
# [6] = test system: HCT-116 colon
# [7] = test system: SF-539 CNS
# [8] = test system: CCRF-CEM leukemia
# [9] = test system: SK-MEL-5 melanoma
# [10] = test system: 786-0 renal
# [11] = test system: T-47D breast
Structure (SMILES),TGI [1],TGI [2] [µM],TGI [3],TGI [4],TGI [5],TGI [6],TGI [7],TGI [8],TGI [9],TGI [10],TGI [11],GI50 [1] [µM],GI50 [3] [µM],GI50 [4] [µM],GI50 [5] [µM],GI50 [6] [µM],GI50 [7] [µM],GI50 [8] [µM],GI50 [9] [µM],GI50 [11] [µM]
CC1(C=O)CC(CCc2ccccc2)NC1Cc1ccc(O)cc1 (stereo not drawn),30.1 µM,29.3,38.2 µM,31.8 µM,34 µM,29.6 µM,29.4 µM,82.7 µM,29.4 µM,29.2 µM,40.9 µM,,,,,,,,,
CCOC(=O)/C=C(/C(=O)OCC)n1ccc(=O)n(Cc2cn(CCCCOC(C)=O)nn2)c1=O,> 100 µM,53.6,> 100 µM,> 100 µM,> 100 µM,> 100 µM,> 100 µM,35.3 µM,> 100 µM,> 100 µM,> 100 µM,,,,,,,,,
COc1ccc2c(O)c1-c1c(OC)ccc(c1O)SSc1ccc(OC)c(c1O)-c1c(OC)ccc(c1O)SS2,> 100 µM,> 100,> 100 µM,> 100 µM,> 100 µM,> 100 µM,69.1 µM,> 100 µM,> 100 µM,> 100 µM,62.9 µM,,,,,,,,,
COC1(OC)CCN(Cc2ccccc2)C1=O,32.3 µM,13,> 100 µM,29.7 µM,29.8 µM,13.9 µM,28.6 µM,6.3 µM,29.2 µM,15.7 µM,18.8 µM,,,,,,,,,
COC(=O)CN1Cc2cc(C)cc(c2O)CN(CC(=O)OC)Cc2cc(C)cc(c2O)CN(CC(=O)OC)Cc2cc(C)cc(c2O)CN(CC(=O)OC)Cc2cc(C)cc(c2O)C1,50 µM and > 100 µM,50,50 µM and > 100 µM,50 µM and > 100 µM,50 µM and > 100 µM,50 µM and > 100 µM,50 µM and > 100 µM,50 µM and 33.2 µM,50 µM and > 100 µM,50 µM and > 100 µM,50 µM and > 100 µM,46.4,39.8,> 100,45.9,27.7,37.3,5.37,37.7,36.4
CC(=O)NC1C(OCc2ccccc2)OC(CO)C(O)C1OCC(=O)NC(C(=O)NC(CCC(=O)NCCCCCC(=O)Nc1ccc2c(c1)CN1C(=O)c3ccccc3C1=N2)C(N)=O)C(C)C (stereo not drawn),> 100 µM,> 100,> 100 µM,39.6 µM,> 100 µM,> 100 µM,37.7 µM,> 100 µM,49.6 µM,38 µM,68 µM,,,,,,,,,
CC(C)(C)OC(=O)N(O)CCCn1cnc2c(NC3CC3)ncnc21,> 100 µM,> 100,> 100 µM,> 100 µM,> 100 µM,> 100 µM,> 100 µM,> 100 µM,> 100 µM,> 100 µM,> 100 µM,,,,,,,,,
CN(C)CCC(=O)[C@@]1(O)CC[C@H]2[C@@H]3CC=C4C[C@@H](O)CC[C@]4(C)[C@H]3CC[C@@]21C,> 86.8 µM,34.6,53.1 µM,6.96 µM,45.5 µM,32.6 µM,8.61 µM,> 55.7 µM,> 81.8 µM,13.6 µM,23.5 µM,,,,,,,,,
CC(=O)N1C(c2[nH]c3ccccc3c2Cc2ccccc2)CCN1c1ccccc1 (stereo not drawn),> 10 µM,> 10,> 10 µM,> 10 µM,> 10 µM,> 10 µM,> 10 µM,> 10 µM,> 10 µM,> 10 µM,> 10 µM,,,,,,,,,
